Bounds are passed on as bounds.

Data set [1] is described as follows: Intrinsic clearance in human liver microsomes. In kind it is ADME. The note with it: read-out: CLH.
Data set [2] is described as follows: Octanol-water partition co-efficient, log D of the compound by shake flask method. In kind it is physicochemical.
For data set [3], the target named is T1, Solute carrier family 22 member 12 (Homo sapiens, UniProt Q96S37).
T1 sequence (Q96S37 whole entry): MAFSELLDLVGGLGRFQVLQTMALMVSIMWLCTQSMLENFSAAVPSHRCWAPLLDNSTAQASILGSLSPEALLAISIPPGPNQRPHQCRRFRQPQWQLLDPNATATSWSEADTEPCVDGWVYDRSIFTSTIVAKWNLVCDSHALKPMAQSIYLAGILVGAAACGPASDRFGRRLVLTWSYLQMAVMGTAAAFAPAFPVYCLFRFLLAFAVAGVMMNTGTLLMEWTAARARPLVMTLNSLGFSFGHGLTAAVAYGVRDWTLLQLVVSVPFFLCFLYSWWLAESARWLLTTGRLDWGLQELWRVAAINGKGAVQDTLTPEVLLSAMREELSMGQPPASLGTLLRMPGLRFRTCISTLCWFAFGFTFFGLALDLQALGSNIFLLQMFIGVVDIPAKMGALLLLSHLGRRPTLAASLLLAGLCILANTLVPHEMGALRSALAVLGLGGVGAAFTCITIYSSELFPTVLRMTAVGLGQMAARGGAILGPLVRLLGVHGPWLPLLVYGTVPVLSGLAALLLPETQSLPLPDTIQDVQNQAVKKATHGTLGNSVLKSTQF
The experiment in a line: Inhibition of human C-terminal eGFP-tagged URAT1 long isoform expressed in CHO cells assessed as decrease in [14C]-uric acid uptake preincubated for 15 mins followed by [14C]-uric acid addition and incubated in dark for 3 hrs by scintillation counting method. In kind it is cell-based.

In data set [4] the target is T1, Solute carrier family 22 member 12. The experiment in a line: Inhibition of URAT1 (unknown origin).
The nature of data set [5]: Drug level in rat hepatocytes treated with 4-(3-chloro-4-(hydroxymethyl)phenoxy)-3-cyano-N-(5-fluoropyridin-2-yl)benzenesulfonamide. In kind it is ADME, cell-based, Hepatocyte.

`N#Cc1ccc(Oc2ccc(S(=O)(=O)Nc3ccc(F)cn3)cc2C#N)cc1`: the microsomal CLint in data set [1] was less than 8 µL/min/mg. Still for that read-out and setting: with `N#Cc1cccc(Oc2ccc(S(=O)(=O)Nc3ccc(F)cn3)cc2C#N)c1` the figure was 65 µL/min/mg. As usually defined, the logD is the decadic logarithm of the distribution of all forms, ionised or not, between an organic phase and buffer at a given pH. A low value points to lower lipophilicity. With `N#Cc1cc(Oc2ccc(S(=O)(=O)Nc3ccc(F)cn3)cc2C#N)ccc1F`, the microsomal CLint in data set [1] turned out to be 83 µL/min/mg. Moreover, the log distribution coefficient (logD) in data set [2] is 1.5. The like results for `N#Cc1ccc(Oc2ccc(S(=O)(=O)Nc3ccc(F)cn3)cc2C#N)c(Cl)c1` were, in that order, less than 8 µL/min/mg and 1.9.

Turning to `N#Cc1ccc(Oc2ccc(S(=O)(=O)Nc3ccc(F)cn3)cc2C#N)cc1F`, the microsomal CLint in data set [1] is less than 8 µL/min/mg. The compound further yielded a logD in data set [2] of 1.4. The like results for `N#Cc1cc(Oc2ccc(S(=O)(=O)Nc3ccc(F)cn3)cc2C#N)ccc1Cl` were, in that order, 134 µL/min/mg and 2. The like results for `N#Cc1cc(S(=O)(=O)Nc2ccc(F)cn2)ccc1Oc1ccc(F)c(Cl)c1` were, in that order, 163 µL/min/mg and 2.3. One may read the IC50 as the concentration that gives 50% inhibition. On to `N#Cc1ccc(Oc2ccc(S(=O)(=O)Nc3ccncn3)cc2C#N)cc1Cl`, for which the IC50 in data set [3] came to 5150 nM. The same measure, in the same setting: the result for `N#Cc1ccc(Oc2ccc(S(=O)(=O)Nc3ccccn3)cc2C#N)cc1Cl` reads 115 nM; that for `N#Cc1ccc(Oc2ccc(S(=O)(=O)Nc3ncccn3)cc2C#N)cc1Cl`, 1820 nM; that for `N#Cc1ccc(Oc2ccc(S(=O)(=O)Nc3cccnc3)cc2C#N)cc1Cl`, 395 nM.

Take `N#Cc1ccc(Oc2ccc(S(=O)(=O)Nc3ccc(F)cn3)cc2F)cc1F`: the IC50 in data set [3] was determined as 382 nM. For the compound `N#Cc1ccc(Oc2ccc(S(=O)(=O)Nc3ccc(F)cn3)c(F)c2)cc1F`, the IC50 in data set [3] stood at 37 nM. In turn, `CC(C)(Sc1ccncc1-c1ccc(C#N)c2ccccc12)C(=O)O` had an IC50 in data set [4] of 23 nM.

In the case of `N#Cc1ccc(Oc2ccc(S(=O)(=O)Nc3ccc(F)cn3)cc2)cc1F`, the IC50 in data set [3] stood at 88 nM. Regarding `N#Cc1cc(S(=O)(=O)Nc2ccc(F)cn2)ccc1Oc1ccc(CO[C@@H]2O[C@H](C(=O)O)[C@@H](O)[C@H](O)[C@H]2O)c(Cl)c1`, the Drug metabolism entry in data set [5] is listed as “Metabolite_Detected”. As to `N#Cc1ccc(Oc2ccc(S(=O)(=O)Nc3ncns3)cc2C#N)cc1Cl`, in data set [3], the IC50 was 1120 nM. The compound `CC(C)OC(=O)C(C)(C)Oc1ccc(C(=O)c2ccc(Cl)cc2)cc1` [FENOFIBRATE] registered an IC50 in data set [4] greater than 75000 nM. With `CC(C)(Oc1ccc(C(=O)c2ccc(Cl)cc2)cc1)C(=O)O` [FENOFIBRIC ACID], the IC50 in data set [4] was found to be 11000 nM.
